# PubChem BioAssay (NCI)
#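 Results reflect a 48-hour exposure of cells in 96-well plates to compound at five concentrations. GI50: concentration for 50% inhibition of growth. TGI denotes the concentration required for complete inhibition of growth.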
# How the values were obtained:
# Assay in all cases: NCI anticancer screen, dose series, 48 h
# 786-0 renal = test system: 786-0 renal
# A498 renal = test system: A498 renal
# A549 NSCLC = test system: A549 NSCLC
# ACHN renal = test system: ACHN renal
# BT-549 breast = test system: BT-549 breast
# CAKI-1 renal = test system: CAKI-1 renal
# CCRF-CEM leukemia = test system: CCRF-CEM leukemia
# COLO 205 colon = test system: COLO 205 colon
# DU-145 prostate = test system: DU-145 prostate
# EKVX NSCLC = test system: EKVX NSCLC
# HCC-2998 colon = test system: HCC-2998 colon
# HCT-116 colon = test system: HCT-116 colon
# HCT-15 colon = test system: HCT-15 colon
# HL-60(TB) leukemia = test system: HL-60(TB) leukemia
# HOP-62 NSCLC = test system: HOP-62 NSCLC
# HOP-92 NSCLC = test system: HOP-92 NSCLC
# HS 578T breast = test system: HS 578T breast
# HT29 colon = test system: HT29 colon
# IGROV1 ovarian = test system: IGROV1 ovarian
# K-562 leukemia = test system: K-562 leukemia
# KM12 colon = test system: KM12 colon
# LOX IMVI melanoma = test system: LOX IMVI melanoma
# M14 melanoma = test system: M14 melanoma
# MALME-3M melanoma = test system: MALME-3M melanoma
# MCF7 breast = test system: MCF7 breast
# MDA-MB-231 breast = test system: MDA-MB-231 breast
# MDA-MB-435 = test system: MDA-MB-435
# MDA-MB-468 breast = test system: MDA-MB-468 breast
# MOLT-4 leukemia = test system: MOLT-4 leukemia
# NCI-H226 lung = test system: NCI-H226 lung
# NCI-H23 lung = test system: NCI-H23 lung
# NCI-H460 lung = test system: NCI-H460 lung
# NCI-H522 lung = test system: NCI-H522 lung
# OVCAR-3 ovarian = test system: OVCAR-3 ovarian
# OVCAR-4 ovarian = test system: OVCAR-4 ovarian
# OVCAR-5 ovarian = test system: OVCAR-5 ovarian
# OVCAR-8 ovarian = test system: OVCAR-8 ovarian
# PC-3 prostate = test system: PC-3 prostate
# RPMI-8226 leukemia = test system: RPMI-8226 leukemia
# RXF 393 renal = test system: RXF 393 renal
# SF-268 CNS = test system: SF-268 CNS
# SF-295 CNS = test system: SF-295 CNS
# SF-539 CNS = test system: SF-539 CNS
# SK-MEL-2 melanoma = test system: SK-MEL-2 melanoma
# SK-MEL-28 melanoma = test system: SK-MEL-28 melanoma
# SK-MEL-5 melanoma = test system: SK-MEL-5 melanoma
# SK-OV-3 ovarian = test system: SK-OV-3 ovarian
# SN12C renal = test system: SN12C renal
# SNB-19 CNS = test system: SNB-19 CNS
# SNB-75 CNS = test system: SNB-75 CNS
# SR leukemia = test system: SR leukemia
# SW-620 colon = test system: SW-620 colon
# T-47D breast = test system: T-47D breast
# TK-10 renal = test system: TK-10 renal
# U251 CNS = test system: U251 CNS
# UACC-257 melanoma = test system: UACC-257 melanoma
# UACC-62 melanoma = test system: UACC-62 melanoma
# UO-31 renal = test system: UO-31 renal
smiles,measurement,setting,value
CN1CCN(c2ccc(C(=O)/C=C/c3cc(Br)ccc3F)cc2)CC1,GI50,786-0 renal,10 µM
same,TGI,786-0 renal,22.4 µM
same,GI50,A498 renal,17 µM
same,TGI,A498 renal,31.7 µM
same,GI50,A549 NSCLC,4.38 µM
same,TGI,A549 NSCLC,16.5 µM
same,GI50,ACHN renal,13.4 µM
same,TGI,ACHN renal,29.5 µM
same,GI50,BT-549 breast,3.58 µM
same,TGI,BT-549 breast,12.2 µM
same,GI50,CAKI-1 renal,12.1 µM
same,TGI,CAKI-1 renal,24.6 µM
same,GI50,CCRF-CEM leukemia,3.44 µM
same,TGI,CCRF-CEM leukemia,15.6 µM
same,GI50,COLO 205 colon,11.8 µM
same,TGI,COLO 205 colon,30.1 µM
same,GI50,DU-145 prostate,11.1 µM
same,TGI,DU-145 prostate,23 µM
same,GI50,EKVX NSCLC,13.3 µM
same,TGI,EKVX NSCLC,26.4 µM
same,GI50,HCC-2998 colon,2.76 µM
same,TGI,HCC-2998 colon,7.91 µM
same,GI50,HCT-116 colon,1.79 µM
same,TGI,HCT-116 colon,3.93 µM
same,GI50,HCT-15 colon,3.43 µM
same,TGI,HCT-15 colon,14.7 µM
same,GI50,HL-60(TB) leukemia,2.77 µM
same,TGI,HL-60(TB) leukemia,14.5 µM
same,GI50,HOP-62 NSCLC,16.2 µM
same,TGI,HOP-62 NSCLC,31.5 µM
same,GI50,HOP-92 NSCLC,6.71 µM
same,TGI,HOP-92 NSCLC,21.9 µM
same,GI50,HS 578T breast,13.3 µM
same,TGI,HS 578T breast,38.8 µM
same,GI50,HT29 colon,2.87 µM
same,TGI,HT29 colon,10.9 µM
same,GI50,IGROV1 ovarian,12.8 µM
same,TGI,IGROV1 ovarian,26.6 µM
same,GI50,K-562 leukemia,2.28 µM
same,TGI,K-562 leukemia,11.8 µM
same,GI50,KM12 colon,2.69 µM
same,TGI,KM12 colon,9.23 µM
same,GI50,LOX IMVI melanoma,3.2 µM
same,TGI,LOX IMVI melanoma,12.5 µM
same,GI50,M14 melanoma,6.38 µM
same,TGI,M14 melanoma,19.7 µM
same,GI50,MALME-3M melanoma,15.3 µM
same,TGI,MALME-3M melanoma,29.4 µM
same,GI50,MCF7 breast,2.67 µM
same,TGI,MCF7 breast,11.5 µM
same,GI50,MDA-MB-231 breast,13.2 µM
same,TGI,MDA-MB-231 breast,30 µM
same,GI50,MDA-MB-435,3.78 µM
same,TGI,MDA-MB-435,13.5 µM
same,GI50,MDA-MB-468 breast,2.51 µM
same,TGI,MDA-MB-468 breast,9.77 µM
same,GI50,MOLT-4 leukemia,3.69 µM
same,TGI,MOLT-4 leukemia,16.8 µM
same,GI50,NCI-H226 lung,12.7 µM
same,TGI,NCI-H226 lung,27.3 µM
same,GI50,NCI-H23 lung,13.5 µM
same,TGI,NCI-H23 lung,27.3 µM
same,GI50,NCI-H460 lung,15.6 µM
same,TGI,NCI-H460 lung,31.1 µM
same,GI50,NCI-H522 lung,13.5 µM
same,TGI,NCI-H522 lung,27.1 µM
same,GI50,OVCAR-3 ovarian,5.81 µM
same,TGI,OVCAR-3 ovarian,18.2 µM
same,GI50,OVCAR-4 ovarian,11.3 µM
same,TGI,OVCAR-4 ovarian,23.9 µM
same,GI50,OVCAR-5 ovarian,18.6 µM
same,TGI,OVCAR-5 ovarian,35.9 µM
same,GI50,OVCAR-8 ovarian,13.2 µM
same,TGI,OVCAR-8 ovarian,26 µM
same,GI50,PC-3 prostate,6.24 µM
same,TGI,PC-3 prostate,21.3 µM
same,GI50,RPMI-8226 leukemia,1.84 µM
same,TGI,RPMI-8226 leukemia,6.07 µM
same,GI50,RXF 393 renal,1.27 µM
same,TGI,RXF 393 renal,13.7 µM
same,GI50,SF-268 CNS,15.1 µM
same,TGI,SF-268 CNS,31.6 µM
same,GI50,SF-295 CNS,15.2 µM
same,TGI,SF-295 CNS,28.7 µM
same,GI50,SF-539 CNS,7.05 µM
same,TGI,SF-539 CNS,21.7 µM
same,GI50,SK-MEL-2 melanoma,14.5 µM
same,TGI,SK-MEL-2 melanoma,27.6 µM
same,GI50,SK-MEL-28 melanoma,19.7 µM
same,TGI,SK-MEL-28 melanoma,36.2 µM
same,GI50,SK-MEL-5 melanoma,12.9 µM
same,TGI,SK-MEL-5 melanoma,25.7 µM
same,GI50,SK-OV-3 ovarian,14.7 µM
same,TGI,SK-OV-3 ovarian,28.6 µM
same,GI50,SN12C renal,11.2 µM
same,TGI,SN12C renal,27.2 µM
same,GI50,SNB-19 CNS,15.1 µM
same,TGI,SNB-19 CNS,29.5 µM
same,GI50,SNB-75 CNS,3.25 µM
same,TGI,SNB-75 CNS,16.6 µM
same,GI50,SR leukemia,2.58 µM
same,TGI,SR leukemia,10.7 µM
same,GI50,SW-620 colon,3.52 µM
same,TGI,SW-620 colon,14.2 µM
same,GI50,T-47D breast,15 µM
same,TGI,T-47D breast,47.3 µM
same,GI50,TK-10 renal,15 µM
same,TGI,TK-10 renal,28.3 µM
same,GI50,U251 CNS,5.91 µM
same,TGI,U251 CNS,18.9 µM
same,GI50,UACC-257 melanoma,15.5 µM
same,TGI,UACC-257 melanoma,29.5 µM
same,GI50,UACC-62 melanoma,15.1 µM
same,TGI,UACC-62 melanoma,29.9 µM
same,GI50,UO-31 renal,8.55 µM
same,TGI,UO-31 renal,21.5 µM
